Data published in paper PMC9513756, “Establishing a UHPLC-MS/MS method for evaluation of the influence of stir-frying on the pharmacokinetics of seven compounds in Arctii Fructus” (RSC Advances, 2022).

experiment: Pharmacokinetics of seven compounds in rat plasma after oral administration of RAF and SAF extracts (UHPLC-MS/MS); assay type: in vivo, male Sprague-Dawley rats; settings: male, Sprague-Dawley, rat, plasma, po, 12 g/kg, oral RAF extract 12 g kg^−1, n = 6
Procedure: All the components were measured using a Shimadzu UHPLC system (Shimadzu, Japan), and a Triple Quadrupole 5500 LC-MS/MS system (AB Sciex, USA) in negative ion mode. […] The gradient program was: 5–28% B (0–3 min), 28% B (3–3.5 min), 28–38% B (3.5–4 min), 38% B (4–4.5 min), 38–100% B (4.5–6 min), 100–5% B (6–7 min). With a column temperature of 40 °C, the optimized key parameters including curtain gas, collision gas, ion spray voltage, and temperature were assigned values of 55 psi, 35 psi, 4500 V, and 550 °C, respectively.
The rat plasma sample (100 μL), IS (10 μL), and 2 M HCl (20 μL) were mixed and vortex mixed for 3 min. Subsequently, 1 mL of ethyl acetate–butyl alcohol (1 : 1) was spiked into the mixed solution, and then centrifuged for 5 min at 25 000 × g.[14] Next, the supernatant was transferred and evaporated with nitrogen gas. These residues were then re-dissolved in 100 μL of 60% methanol, with the final solutions being vortex mixed for 3 min, and then centrifuged for 10 min at 25 000 × g. Finally, the supernatant was injected into the UHPLC-MS/MS for extensive analysis.
Firstly, male Sprague-Dawley rats (200–220 g) in the animal laboratory at the Nanjing University of Chinese Medicine under the standard conditions (License number: SYXK(SU)-2007-0030) were fed. The rats were fed and provided with water for one week prior to the experimentation. Secondly, before the administration of the extracts, the rats were stopped from eating but were provided with water for 12 h prior to the test. […] Depending on the clinical dosage administered to the human body, the dosage of RAF and SAF comprised 12 g kg^−1 for oral administration. In addition, 500 μL blood samples (about 250 μL plasma) were collected in 1.5 mL heparinized polythene tubes at 0, 0.033, 0.083, 0.167, 0.33, 0.5, 0.75, 1, 2, 4, 6, 8, 12, 24, and 48 h via the postorbital venous plexus veins, after oral administration of the two extracts was observed. Finally, the collected plasma was centrifuged for 5 min at 25 000 × g and stored at −20 °C before the analysis. All the pharmacokinetic parameters were evaluated with the DAS 1.0 system (Medical College of Wannan, China). Furthermore, the maximum concentration of oral administration of AF (Cmax) and the time to reach Cmax (Tmax) were derived from the concentration–time profile. All the values were given as mean ± standard deviation.

SMILES | Tmax | half-life | AUC(0-inf) | AUC(0-t)
COc1cc(C[C@H]2C(=O)OC[C@@H]2Cc2ccc(OC)c(OC)c2)ccc1O [Arctigenin, arctigenin] | 9 ± 2.45 h | 8.25 ± 1.09 h | – | –
COc1ccc(C[C@H]2COC(=O)[C@@H]2Cc2ccc(O[C@@H]3O[C@H](CO)[C@@H](O)[C@H](O)[C@H]3O)c(OC)c2)cc1OC [Arctiin, arctiin] | 0.152 ± 0.09 h | 3 ± 1.42 h | 1070 ± 417 ng·h/mL | 826 ± 216 ng·h/mL
O=C(C=Cc1ccc(O)c(O)c1)OC1CC(O)(C(=O)O)CC(OC(=O)C=Cc2ccc(O)c(O)c2)C1O (stereo not shown) [Isochlorogenic acid A, isochlorogenic acid A] | 0.792 ± 0.09 h | 6.7 ± 3.61 h | 272 ± 169 ng·h/mL | 219 ± 110 ng·h/mL
O=C(C=Cc1ccc(O)c(O)c1)OC1CC(O)(C(=O)O)CC(O)C1OC(=O)C=Cc1ccc(O)c(O)c1 (stereo not shown) [Isochlorogenic acid C, isochlorogenic acid C] | 0.125 ± 0.05 h | – | 84.1 ± 46.3 ng·h/mL | 71.5 ± 33.2 ng·h/mL

The remaining lines, values ahead:

Tmax | half-life | AUC(0-inf) | AUC(0-t) | SMILES
0.875 ± 0.41 h | – | 1090 ± 588 ng·h/mL | 1070 ± 594 ng·h/mL | O=C(/C=C/c1ccc(O)c(O)c1)O[C@@H]1C[C@](O)(C(=O)O)C[C@@H](O)[C@H]1O [Chlorogenic acid, chlorogenic acid]
0.431 ± 0.07 h | 12.6 ± 7.96 h | 196 ± 59.1 ng·h/mL | 152 ± 60.7 ng·h/mL | O=C(C=Cc1ccc(O)c(O)c1)OC1C(O)CC(O)(C(=O)O)CC1O (stereo not shown) [Cryptochlorogenic acid, cryptochlorogenic acid]

same assay, conditions: male, Sprague-Dawley, rat, plasma, po, 12 g/kg, oral RAF extract 12 g kg^−1, n = 6, read-out: Mean residence time (MRT(0–∞))

SMILES | MRT inf
COc1cc(C[C@H]2C(=O)OC[C@@H]2Cc2ccc(OC)c(OC)c2)ccc1O [Arctigenin, arctigenin] | 14.9 ± 0.99 h
COc1ccc(C[C@H]2COC(=O)[C@@H]2Cc2ccc(O[C@@H]3O[C@H](CO)[C@@H](O)[C@H](O)[C@H]3O)c(OC)c2)cc1OC [Arctiin, arctiin] | 5.33 ± 2.99 h
O=C(C=Cc1ccc(O)c(O)c1)OC1CC(O)(C(=O)O)CC(OC(=O)C=Cc2ccc(O)c(O)c2)C1O (stereo not shown) [Isochlorogenic acid A, isochlorogenic acid A] | 8.35 ± 2.91 h

Results, then the compound that gave them:

MRT inf | SMILES
3.72 ± 0.6 h | O=C(/C=C/c1ccc(O)c(O)c1)O[C@@H]1C[C@](O)(C(=O)O)C[C@@H](O)[C@H]1O [Chlorogenic acid, chlorogenic acid]
19.9 ± 9.37 h | O=C(C=Cc1ccc(O)c(O)c1)OC1C(O)CC(O)(C(=O)O)CC1O (stereo not shown) [Cryptochlorogenic acid, cryptochlorogenic acid]

same assay, conditions: male, Sprague-Dawley, rat, plasma, po, 12 g/kg, oral SAF extract 12 g kg^−1, n = 6

SMILES | Tmax | half-life | AUC(0-inf) | AUC(0-t)
COc1cc(C[C@H]2C(=O)OC[C@@H]2Cc2ccc(OC)c(OC)c2)ccc1O [Arctigenin, arctigenin] | 8.67 ± 3.72 h | 9.95 ± 4.46 h | – | –
COc1ccc(C[C@H]2COC(=O)[C@@H]2Cc2ccc(O[C@@H]3O[C@H](CO)[C@@H](O)[C@H](O)[C@H]3O)c(OC)c2)cc1OC [Arctiin, arctiin] | 0.072 ± 0.05 h | 3.83 ± 1.86 h | 1970 ± 600 ng·h/mL | 943 ± 228 ng·h/mL
O=C(C=Cc1ccc(O)c(O)c1)OC1CC(O)(C(=O)O)CC(OC(=O)C=Cc2ccc(O)c(O)c2)C1O (stereo not shown) [Isochlorogenic acid A, isochlorogenic acid A] | 0.1 ± 0.07 h | 3.27 ± 1.26 h | 180 ± 63.6 ng·h/mL | 101 ± 73.1 ng·h/mL
O=C(C=Cc1ccc(O)c(O)c1)OC1CC(O)(C(=O)O)CC(O)C1OC(=O)C=Cc1ccc(O)c(O)c1 (stereo not shown) [Isochlorogenic acid B, isochlorogenic acid B] | – | 24.3 ± 11.5 h | – | –
O=C(C=Cc1ccc(O)c(O)c1)OC1CC(O)(C(=O)O)CC(O)C1OC(=O)C=Cc1ccc(O)c(O)c1 (stereo not shown) [Isochlorogenic acid C, isochlorogenic acid C] | 0.078 ± 0.03 h | – | – | 79.5 ± 25.1 ng·h/mL

Now from value to compound:

Tmax | half-life | AUC(0-inf) | AUC(0-t) | SMILES
0.111 ± 0.43 h | 4.37 ± 0.32 h | 937 ± 660 ng·h/mL | 695 ± 307 ng·h/mL | O=C(/C=C/c1ccc(O)c(O)c1)O[C@@H]1C[C@](O)(C(=O)O)C[C@@H](O)[C@H]1O [Chlorogenic acid, chlorogenic acid]
0.103 ± 0.05 h | 13.5 ± 7.98 h | 280 ± 68 ng·h/mL | 218 ± 80.3 ng·h/mL | O=C(C=Cc1ccc(O)c(O)c1)OC1C(O)CC(O)(C(=O)O)CC1O (stereo not shown) [Cryptochlorogenic acid, cryptochlorogenic acid]

same assay, conditions: male, Sprague-Dawley, rat, plasma, po, 12 g/kg, oral SAF extract 12 g kg^−1, n = 6, read-out: Mean residence time (MRT(0–∞))

SMILES | MRT inf
COc1cc(C[C@H]2C(=O)OC[C@@H]2Cc2ccc(OC)c(OC)c2)ccc1O [Arctigenin, arctigenin] | 17.8 ± 6.08 h
COc1ccc(C[C@H]2COC(=O)[C@@H]2Cc2ccc(O[C@@H]3O[C@H](CO)[C@@H](O)[C@H](O)[C@H]3O)c(OC)c2)cc1OC [Arctiin, arctiin] | 8.98 ± 3.11 h
O=C(C=Cc1ccc(O)c(O)c1)OC1CC(O)(C(=O)O)CC(OC(=O)C=Cc2ccc(O)c(O)c2)C1O (stereo not shown) [Isochlorogenic acid A, isochlorogenic acid A] | 7.97 ± 5.12 h

The next lines start with the values.

MRT inf | SMILES
5.09 ± 1.82 h | O=C(/C=C/c1ccc(O)c(O)c1)O[C@@H]1C[C@](O)(C(=O)O)C[C@@H](O)[C@H]1O [Chlorogenic acid, chlorogenic acid]
16.9 ± 8.6 h | O=C(C=Cc1ccc(O)c(O)c1)OC1C(O)CC(O)(C(=O)O)CC1O (stereo not shown) [Cryptochlorogenic acid, cryptochlorogenic acid]

same assay, conditions: oral RAF and SAF

shape of plasma concentration-time profile | SMILES
double-peak phenomenon | COc1cc(C[C@H]2C(=O)OC[C@@H]2Cc2ccc(OC)c(OC)c2)ccc1O [Arctigenin, arctigenin]

same assay, conditions: oral RAF extract 12 g kg^−1, n = 6

SMILES | C (max) | t 1/2 | Mean residence time (MRT(0–∞)) | T max
COc1cc(C[C@H]2C(=O)OC[C@@H]2Cc2ccc(OC)c(OC)c2)ccc1O [Arctigenin, arctigenin] | 706.9 ± 148.9 ng/mL | – | – | –
COc1ccc(C[C@H]2COC(=O)[C@@H]2Cc2ccc(O[C@@H]3O[C@H](CO)[C@@H](O)[C@H](O)[C@H]3O)c(OC)c2)cc1OC [Arctiin, arctiin] | 1019.3 ± 605.9 ng/mL | – | – | –
O=C(C=Cc1ccc(O)c(O)c1)OC1CC(O)(C(=O)O)CC(OC(=O)C=Cc2ccc(O)c(O)c2)C1O (stereo not shown) [Isochlorogenic acid A, isochlorogenic acid A] | 99.05 ± 37.81 ng/mL | – | – | –
O=C(C=Cc1ccc(O)c(O)c1)OC1CC(O)(C(=O)O)CC(O)C1OC(=O)C=Cc1ccc(O)c(O)c1 (stereo not shown) [Isochlorogenic acid B, isochlorogenic acid B] | 11.33 ± 8.68 ng/mL | 35.68 ± 18.24 h | 52.97 ± 27.74 h | 7.02 ± 4.2 min
O=C(C=Cc1ccc(O)c(O)c1)OC1CC(O)(C(=O)O)CC(O)C1OC(=O)C=Cc1ccc(O)c(O)c1 (stereo not shown) [Isochlorogenic acid C, isochlorogenic acid C] | 39.89 ± 17.30 ng/mL | 9.002 ± 5.89 h | 15.89 ± 11.25 h | –

Further lines, results first:

C (max) | t 1/2 | Mean residence time (MRT(0–∞)) | T max | SMILES
348.5 ± 161.3 ng/mL | 2.175 ± 0.28 h | – | – | O=C(/C=C/c1ccc(O)c(O)c1)O[C@@H]1C[C@](O)(C(=O)O)C[C@@H](O)[C@H]1O [Chlorogenic acid, chlorogenic acid]
34.80 ± 25.06 ng/mL | – | – | – | O=C(C=Cc1ccc(O)c(O)c1)OC1C(O)CC(O)(C(=O)O)CC1O (stereo not shown) [Cryptochlorogenic acid, cryptochlorogenic acid]

same assay, conditions: oral SAF extract 12 g kg^−1, n = 6

SMILES | C (max) | Mean residence time (MRT(0–∞)) | T max | t 1/2
COc1cc(C[C@H]2C(=O)OC[C@@H]2Cc2ccc(OC)c(OC)c2)ccc1O [Arctigenin, arctigenin] | 600.8 ± 158.3 ng/mL | – | – | –
COc1ccc(C[C@H]2COC(=O)[C@@H]2Cc2ccc(O[C@@H]3O[C@H](CO)[C@@H](O)[C@H](O)[C@H]3O)c(OC)c2)cc1OC [Arctiin, arctiin] | 605.7 ± 389.5 ng/mL | – | – | –
O=C(C=Cc1ccc(O)c(O)c1)OC1CC(O)(C(=O)O)CC(OC(=O)C=Cc2ccc(O)c(O)c2)C1O (stereo not shown) [Isochlorogenic acid A, isochlorogenic acid A] | 135.71 ± 25.50 ng/mL | – | – | –
O=C(C=Cc1ccc(O)c(O)c1)OC1CC(O)(C(=O)O)CC(O)C1OC(=O)C=Cc1ccc(O)c(O)c1 (stereo not shown) [Isochlorogenic acid B, isochlorogenic acid B] | 43.22 ± 26.80 ng/mL | 32.75 ± 15.17 h | 6.18 ± 3 min | –
O=C(C=Cc1ccc(O)c(O)c1)OC1CC(O)(C(=O)O)CC(O)C1OC(=O)C=Cc1ccc(O)c(O)c1 (stereo not shown) [Isochlorogenic acid C, isochlorogenic acid C] | 103.84 ± 47.62 ng/mL | 8.736 ± 5.55 h | – | 6.770 ± 4.30 h

Next, values leading:

C (max) | Mean residence time (MRT(0–∞)) | T max | t 1/2 | SMILES
303.7 ± 105.7 ng/mL | – | – | – | O=C(/C=C/c1ccc(O)c(O)c1)O[C@@H]1C[C@](O)(C(=O)O)C[C@@H](O)[C@H]1O [Chlorogenic acid, chlorogenic acid]
116.16 ± 35.41 ng/mL | – | – | – | O=C(C=Cc1ccc(O)c(O)c1)OC1C(O)CC(O)(C(=O)O)CC1O (stereo not shown) [Cryptochlorogenic acid, cryptochlorogenic acid]
